# Structures can show the parent of a compound that is named as a salt. Where two headings read alike, the source gives them in different places. Marks after values point to notes of the source that are not given here.
# Tests used:
# hERG channel = target: T1, hERG channel (Homo sapiens, UniProt Q12809); experiment: hERG potassium channel inhibition test (automatic patch clamp); format: cell-based; details: 10 μM, hERG channel-stably expressing CHO cells, tail current
# T1 construct: host or cells: CHO cells
# T1 sequence (Q12809 whole entry): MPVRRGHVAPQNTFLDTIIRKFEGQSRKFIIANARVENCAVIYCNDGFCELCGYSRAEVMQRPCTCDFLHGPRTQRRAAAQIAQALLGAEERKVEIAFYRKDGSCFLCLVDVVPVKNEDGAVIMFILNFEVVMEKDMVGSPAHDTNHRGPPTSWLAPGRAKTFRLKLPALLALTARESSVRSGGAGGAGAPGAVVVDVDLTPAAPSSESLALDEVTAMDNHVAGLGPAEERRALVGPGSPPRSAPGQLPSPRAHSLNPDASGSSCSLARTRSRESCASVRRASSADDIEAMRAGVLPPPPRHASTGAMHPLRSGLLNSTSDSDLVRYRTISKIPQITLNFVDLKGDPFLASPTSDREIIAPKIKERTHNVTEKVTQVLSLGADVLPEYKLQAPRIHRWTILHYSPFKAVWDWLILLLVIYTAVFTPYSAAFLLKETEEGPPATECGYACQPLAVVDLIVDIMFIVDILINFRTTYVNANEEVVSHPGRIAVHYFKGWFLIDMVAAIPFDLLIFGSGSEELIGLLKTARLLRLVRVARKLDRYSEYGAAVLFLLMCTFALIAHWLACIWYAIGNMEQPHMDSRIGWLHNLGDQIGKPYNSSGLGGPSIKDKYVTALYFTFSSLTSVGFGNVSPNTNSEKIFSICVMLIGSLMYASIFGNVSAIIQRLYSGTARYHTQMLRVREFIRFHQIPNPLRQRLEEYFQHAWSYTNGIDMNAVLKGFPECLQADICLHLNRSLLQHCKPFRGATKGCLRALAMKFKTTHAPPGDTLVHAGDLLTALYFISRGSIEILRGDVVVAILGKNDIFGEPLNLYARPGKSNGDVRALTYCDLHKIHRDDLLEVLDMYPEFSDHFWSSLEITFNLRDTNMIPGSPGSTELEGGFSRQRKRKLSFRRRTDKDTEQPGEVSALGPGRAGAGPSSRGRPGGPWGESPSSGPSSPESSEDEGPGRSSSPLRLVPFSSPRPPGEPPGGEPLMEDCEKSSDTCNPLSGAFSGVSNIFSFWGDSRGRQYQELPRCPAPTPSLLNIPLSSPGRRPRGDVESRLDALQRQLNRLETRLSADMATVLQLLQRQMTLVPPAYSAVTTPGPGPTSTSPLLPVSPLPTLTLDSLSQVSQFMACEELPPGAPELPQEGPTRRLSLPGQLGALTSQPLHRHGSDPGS
# Procedure: The test was performed with Port-a-Patch automatic patch clump apparatus (Nanion Technologies) using hERG channel-stably expressing CHO cells (purchased from Channelopathy Foundation). The membrane potential of the cells was maintained at −80 mV, then there were applied a depolarization pulse at +20 mV for 1.5 seconds, and a following test pulse at −50 mV for 1.5 seconds at a frequency of 1 time per 10 seconds, and the hERG current was confirmed as a tail current induced by the test pulse. The test compound was dissolved in an extracellular fluid (137 mM NaCl, 4 mM KCl, 1.8 mM CaCl2, 1 mM MgCl2, 10 mM D(+)-glucose, 10 mM HEPES, pH 7.4), and the solution was refluxed at room temperature for 5 minutes. The inhibition ratio was obtained from the ratio of the tail current value observed after the compound was applied based on the tail current value observed before the compound was applied, which was taken as 100%.
# human opioid μ receptor = target: T2, human opioid μ receptor (Homo sapiens, UniProt P35372); experiment: Opioid receptor function test (Lance Ultra cAMP Kit), μ receptor; format: cell-based
# T2 construct: host or cells: CHO cells
# T2 sequence (P35372 whole entry): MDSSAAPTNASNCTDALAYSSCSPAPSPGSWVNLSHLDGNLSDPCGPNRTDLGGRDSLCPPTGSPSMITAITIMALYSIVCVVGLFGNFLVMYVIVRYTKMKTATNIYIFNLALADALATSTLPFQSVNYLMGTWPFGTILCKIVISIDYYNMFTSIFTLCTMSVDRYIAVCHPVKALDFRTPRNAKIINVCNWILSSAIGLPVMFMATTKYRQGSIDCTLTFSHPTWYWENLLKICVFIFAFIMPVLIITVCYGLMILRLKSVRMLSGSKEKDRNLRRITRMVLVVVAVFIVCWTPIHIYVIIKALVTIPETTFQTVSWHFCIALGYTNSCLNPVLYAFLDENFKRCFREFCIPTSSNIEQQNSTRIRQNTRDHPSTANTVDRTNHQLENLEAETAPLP
# C57BL/6N male mice = experiment: Mouse elevated plus maze test; format: in vivo; details: subcutaneous, dose not stated (FIGS. 3 to 5)
# Procedure: For the test, 5 to 6 weeks old C57BL/6N male mice were used. On a plus maze apparatus consisting of a wall-less running route (open arm, width 6 cm, length 30 cm) and a running route with a wall (closed arm, width 6 cm, length 30 cm, height of wall 15 cm), and having a height of 40 cm, a mouse was put so as to be directed to the running route with a wall, and allowed to spontaneously enter into the plus maze. Each test substance was dissolved in saline or 0.005 N HCl in saline, and subcutaneously administered on the back 30 minutes before the start of the test. At the time of the start of the test, video recording with a video camera was started, the time at which the mouse entered into the plus maze is considered to be the start of the test, and exploratory behavior was recorded for 5 minutes. On the basis of the video image, staying time in the running routes were determined, and wall-less running route staying time ratio (%) was calculated.
# human opioid κ receptor = target: T3, human opioid κ receptor (Homo sapiens, UniProt P41145); experiment: cell-based
# T3 construct: host or cells: CHO cells
# T3 sequence (P41145 whole entry): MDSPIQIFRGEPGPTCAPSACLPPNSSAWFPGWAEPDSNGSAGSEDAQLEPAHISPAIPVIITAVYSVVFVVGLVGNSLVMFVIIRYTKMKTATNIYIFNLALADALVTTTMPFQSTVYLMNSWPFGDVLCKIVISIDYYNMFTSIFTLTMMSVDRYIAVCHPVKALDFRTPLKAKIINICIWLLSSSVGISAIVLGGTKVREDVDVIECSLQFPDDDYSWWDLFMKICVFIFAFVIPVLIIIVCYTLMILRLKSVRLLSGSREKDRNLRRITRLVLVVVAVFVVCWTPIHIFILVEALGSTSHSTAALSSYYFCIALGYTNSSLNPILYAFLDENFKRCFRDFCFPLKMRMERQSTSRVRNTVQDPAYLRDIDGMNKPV
# SD male rats = experiment: Rat cerebral infarction-induced overactive bladder model (cystometry); format: in vivo
# Procedure: A transient middle cerebral artery occlusion model was prepared by using 8 weeks old SD male rats under isoflurane inhalation anesthesia. On the next day, the cervix was slightly cut open again under the isoflurane inhalation anesthesia, and a catheter for administration was fixed in the jugular vein, and led to the back. A cystometry operation was also performed, and the other end of a cannula inserted into the bladder was led to the back, and connected to a cannula swivel.
# On the day 4 after the cerebral ischemia operation, cystometry was performed under no anesthesia and with no restraint. Intravesical pressure was measured for the stable period, then a medium was intravenously administered, and the value of the pressure was measured over about 30 minutes as a value before test substance administration. Then, the test substance was cumulatively and intravenously administered from the lowest dose at intervals of about 30 minutes, and the value was measured for about 30 minutes after each administration. For the rats determined to show pollakiuria (urination interval was 10 minutes or shorter) in the measurement before the administration, static intravesical pressure, pressure at the time of urination, urination interval, and single urination amount were measured at each time point.
# OBX rats = experiment: Hyperemotional reaction inhibition test using olfactory bulbectomized (OBX) rat; format: in vivo
# Procedure: According to the method of Saitoh et al. (Saitoh A, Yamada M, Yamada M, Takahashi K, Yamaguchi K, Murasawa H, Nakatani A, Tatsumi Y, Hirose N, and Kamei J: Antidepressant-like effects of the delta-opioid receptor agonist SNC80 ((+)-4-[(alphaR)-alpha-[(2S,5R)-2,5-dimethyl-4-(2-propenyl)-1-piperazinyl]-(3-methoxyphenyl)methyl]-N,N-diethylbenzamide) in an olfactory bulbectomized rat model, Brain Res., 2008, 1208160-169), OBX rats were prepared by extracting the rat olfactory bulbs, and then breeding the rats in an isolated circumstance. Hyperemotional reaction was evaluated on the day 14 after the surgical operation and before the division into groups, and 2 hours after the administration on the days 1, 4, 7, 10, and 14 of the administration period according to the hyperemotional reaction evaluation criteria prepared by Gomita et al. (Gomita et al., Behavioral pharmacological and electroencephalographical studies of 7-chloro-1-methyl-5-phenyl-1H-1,5-benzodiazepine-2,4-(3H,5H:)-dione (Clobazam), Folia Pharmacologica Japonica, 82, 267 (1983)). The drug was subcutaneously administered once a day continuously over 14 days. As a positive control drug, fluoxetine, which is a selective serotonin reuptake inhibitor (SSRI), was used. As the solvent, a 1% cyclodextrin (CD) was used.
# [1] = read-out: μ receptor Emax, starred: reaction rate at the maximum concentration (reference value)
# [2] = read-out: κ receptor Emax, starred: reaction rate at the maximum concentration (reference value)
structure (smiles),measurement,setting,value
"O=C(c1cccc[n+]1[O-])N1C[C@H]2C[C@@]34CC[C@@H]1[C@@H]2[C@@]31CCN(CC2CC2)[C@@H]4Cc2ccc(O)cc21 [Example 1, 2-((1S,3aR,5aS,6R,11bR,11cS)-14-(cyclopropylmethyl)-10-hydroxy-2,3,3a,4,5,6,7,11c-octahydro-1H-6,11b-(epiminoethano)-1,5a-methanonaphtho[1,2-e]indole-3-carbonyl)pyridine 1-oxide]",hERG channel inhibitory action,hERG channel,<50%
same,Emax,human opioid μ receptor; [1],8.3%
"O=C(c1ccc[nH]c1=O)N1C[C@H]2C[C@@]34CC[C@@H]1[C@@H]2[C@@]31CCN(CC2CC2)[C@@H]4Cc2ccc(O)cc21 [Example 3, 3-((1S,3aR,5aS,6R,11bR,11cS)-14-(cyclopropylmethyl)-10-hydroxy-2,3,3a,4,5,6,7,11c-octahydro-1H-6,11b-(epiminoethano)-1,5a-methanonaphtho[1,2-e]indole-3-carbonyl)pyridin-2(1H)-one]",hERG channel inhibitory action,hERG channel,<50%
same,wall-less running route staying time ratio,C57BL/6N male mice,showed a tendency of increasing
"O=C(c1ccc[n+]([O-])c1)N1C[C@H]2C[C@@]34CC[C@@H]1[C@@H]2[C@@]31CCN(CC2CC2)[C@@H]4Cc2ccc(O)cc21 [Example 4, 3-((1S,3aR,5aS,6R,11bR,11cS)-14-(cyclopropylmethyl)-10-hydroxy-2,3,3a,4,5,6,7,11c-octahydro-1H-6,11b-(epiminoethano)-1,5a-methanonaphtho[1,2-e]indole-3-carbonyl)pyridine 1-oxide]",Emax,human opioid μ receptor; [1],5.5%
"Cn1cccc(C(=O)N2C[C@H]3C[C@@]45CC[C@@H]2[C@@H]3[C@@]42CCN(CC3CC3)[C@@H]5Cc3ccc(O)cc32)c1=O [Example 6, 3-((1S,3aR,5aS,6R,11bR,11cS)-14-(cyclopropylmethyl)-10-hydroxy-2,3,3a,4,5,6,7,11c-octahydro-1H-6,11b-(epiminoethano)-1,5a-methanonaphtho[1,2-e]indole-3-carbonyl)-1-methylpyridin-2(1H)-one]",Emax,human opioid κ receptor; [2],3.2%
"O=C(c1cccc(=O)[nH]1)N1C[C@H]2C[C@@]34CC[C@@H]1[C@@H]2[C@@]31CCN(CC2CC2)[C@@H]4Cc2ccc(O)cc21 [Example 7, 6-((1S,3aR,5aS,6R,11bR,11cS)-14-(cyclopropylmethyl)-10-hydroxy-2,3,3a,4,5,6,7,11c-octahydro-1H-6,11b-(epiminoethano)-1,5a-methanonaphtho[1,2-e]indole-3-carbonyl)pyridin-2(1H)-one]",hERG channel inhibitory action,hERG channel,<50%
same,Emax,human opioid κ receptor; [2],-0.9%
same,single urination amount (in words),SD male rats; 0.01 and 0.1 mg/kg i.v.,dose-dependently increasing tendency
same,urination interval (in words),SD male rats; 0.01 and 0.1 mg/kg i.v.,dose-dependently increasing tendency
same,pressure at the time of urination (in words),SD male rats; at all the doses,did not affect
same,static intravesical pressure (in words),SD male rats; at all the doses,did not affect
same,hyperemotional reactions compared with the sham surgery group,"OBX rats; 0.1 mg/kg s.c. once a day, on the day 7 of the administration period",restored the condition even to a level comparable to that of the rats of the sham surgery group
same,hyperemotional reactions compared with the sham surgery group,"OBX rats; 1 mg/kg s.c. once a day, on the day 4 of the administration period",restored the condition even to a level comparable to that of the rats of the sham surgery group
"Cn1cc(C(=O)N2C[C@H]3C[C@@]45CC[C@@H]2[C@@H]3[C@@]42CCN(CC3CC3)[C@@H]5Cc3ccc(O)cc32)ccc1=O [Example 9, 5-((1S,3aR,5aS,6R,11bR,11cS)-14-(cyclopropylmethyl)-10-hydroxy-2,3,3a,4,5,6,7,11c-octahydro-1H-6,11b-(epiminoethano)-1,5a-methanonaphtho[1,2-e]indole-3-carbonyl)-1-methylpyridin-2(1H)-one]",hERG channel inhibitory action,hERG channel,<50%
same,wall-less running route staying time ratio,C57BL/6N male mice,showed a tendency of increasing
same,Emax,"human opioid μ receptor; ratio to maximum reaction of control drug DAMGO taken as 100%, read-out: μ receptor Emax",16%
"Cn1c(C(=O)N2C[C@H]3C[C@@]45CC[C@@H]2[C@@H]3[C@@]42CCN(CC3CC3)[C@@H]5Cc3ccc(O)cc32)cccc1=O [Example 10, 6-((1S,3aR,5aS,6R,11bR,11cS)-14-(cyclopropylmethyl)-10-hydroxy-2,3,3a,4,5,6,7,11c-octahydro-1H-6,11b-(epiminoethano)-1,5a-methanonaphtho[1,2-e]indole-3-carbonyl)-1-methylpyridin-2(1H)-one]",hERG channel inhibitory action,hERG channel,<50%
same,Emax,human opioid κ receptor; [2],-0.7%
same,wall-less running route staying time ratio,C57BL/6N male mice,showed a tendency of increasing
same,Emax,human opioid μ receptor; [1],6%
"O=C(c1cc[nH]c(=O)c1)N1C[C@H]2C[C@@]34CC[C@@H]1[C@@H]2[C@@]31CCN(CC2CC2)[C@@H]4Cc2ccc(O)cc21 [Example 11, 4-((1S,3aR,5aS,6R,11bR,11cS)-14-(cyclopropylmethyl)-10-hydroxy-2,3,3a,4,5,6,7,11c-octahydro-1H-6,11b-(epiminoethano)-1,5a-methanonaphtho[1,2-e]indole-3-carbonyl)pyridin-2(1H)-one]",Emax,human opioid κ receptor; [2],-2.5%
"O=C(c1cc(=O)cc[nH]1)N1C[C@H]2C[C@@]34CC[C@@H]1[C@@H]2[C@@]31CCN(CC2CC2)[C@@H]4Cc2ccc(O)cc21 [Example 14, 2-((1S,3aR,5aS,6R,11bR,11cS)-14-(cyclopropylmethyl)-10-hydroxy-2,3,3a,4,5,6,7,11c-octahydro-1H-6,11b-(epiminoethano)-1,5a-methanonaphtho[1,2-e]indole-3-carbonyl)pyridin-4(1H)-one]",Emax,human opioid κ receptor; [2],6.7%
"O=C(c1cc(=O)cco1)N1C[C@H]2C[C@@]34CC[C@@H]1[C@@H]2[C@@]31CCN(CC2CC2)[C@@H]4Cc2ccc(O)cc21 [Example 19, 2-((1S,3aR,5aS,6R,11bR,11cS)-14-(cyclopropylmethyl)-10-hydroxy-2,3,3a,4,5,6,7,11c-octahydro-1H-6,11b-(epiminoethano)-1,5a-methanonaphtho[1,2-e]indole-3-carbonyl)-4H-pyran-4-one]",Emax,human opioid κ receptor; [2],0.6%
"CCn1cc(C(=O)N2C[C@H]3C[C@@]45CC[C@@H]2[C@@H]3[C@@]42CCN(CC3CC3)[C@@H]5Cc3ccc(O)cc32)ccc1=O [Example 28, 5-((1S,3aR,5aS,6R,11bR,11cS)-14-(cyclopropylmethyl)-10-hydroxy-2,3,3a,4,5,6,7,11c-octahydro-1H-6,11b-(epiminoethano)-1,5a-methanonaphtho[1,2-e]indole-3-carbonyl)-1-ethylpyridin-2(1H)-one]",Emax,human opioid κ receptor; read-out: κ receptor Emax,13%
"Cn1cccc(C(=O)N2C[C@H]3C[C@@]45CC[C@@H]2[C@@H]3[C@@]42CCN(CC3CC3)[C@@H]5Cc3ccc(O)cc32)c1=O [Example 31, 3-((1S,3aR,5aS,6R,11bR,11cS)-14-(cyclopropylmethyl)-10-hydroxy-2,3,3a,4,5,6,7,11c-octahydro-1H-6,11b-(epiminoethano)-1,5a-methanonaphtho[1,2-e]indole-3-carbonyl)-1-methylpyridin-2(1H)-one hydrochloride]",Emax,"human opioid κ receptor; maximum reaction not reached, at maximum concentration (10 μM), U-69593 = 100%",3.2* %

# Source: US11643411B2 (priority 2015, dated 2023)
